Measurements reported in US20230083012A1, “DIHYDROPYRIMIDINE DERIVATIVES AND USES THEREOF IN THE TREATMENT OF HBV INFECTION OR OF HBV-INDUCED DISEASES” (priority 2019, published 2023).
Where two headings read alike, the source gives them in different places.

Tests used:
HBV = experiment: Anti-HBV activity in HepG2.2.15 cells (HBV DNA in culture medium by qPCR); format: cell-based; details: Hepatitis B virus, HepG2.2.15, 144 h
Outline: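 HepG2.2.15 cells in 2% FBS medium at 37 °C were treated with compounds for 6 days, with medium and compound refreshed at day 3; 1:3 dilutions, 8 concentrations in triplicate, top 10 or 1 uM. HBV DNA in culture medium quantified by qPCR to derive EC50; CC50 from parallel plates (top 100 uM).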

[1] = Cytotoxicity determination in HepG2.2.15 cells (CCK-8 cell viability); format: cell-based; details: human, 6 days treatment, CCK-8 assay, highest concentration 100 uM
Outline: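 HepG2.2.15 cells seeded at 5,000 cells/well in 2% FBS medium, exposed 6 days to compounds (8-point 1:3 dilutions from 100 uM, triplicate), refreshed at day 3. Viability read by CCK-8 after 2.5 h at 37° C, absorbance 450 nm with 630 nm reference; CC50 calculated.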

[2] = HepG2.2.15 cells, 6 days treatment, HBV DNA in culture medium quantified by real-time PCR, read-out: EC50

SMILES	EC50 (HBV; [2]) [nM]	CC50 at 6 days [1] [nM]	EC50 (HBV) [nM]
CCOC(=O)C1=C(CN2CC[C@@]3(F)C(=O)N(CCC(C)(C)C(=O)O)C[C@@H]23)NC(c2nccs2)=N[C@H]1c1cccc(F)c1C (single isomer, unassigned) [Compound 50A]	40.8	49300	–
CCOC(=O)C1=C(CN2CC(F)(F)[C@@H]3CN(c4ncc(C(=O)O)cn4)C[C@@H]32)NC(c2nccs2)=N[C@H]1c1cccc(F)c1C (single isomer, unassigned) [Compound 54]	49.2	55200	–
CCOC(=O)C1=C(CN2CC(F)(F)[C@@H]3CN(C(=O)[C@H]4C[C@@H](C(=O)O)C4)C[C@@H]32)NC(c2nccs2)=N[C@H]1c1cccc(F)c1C (single isomer, unassigned) [Compound 56B]	79.2	> 100000	–
CCOC(=O)C1=C(CN2CC(F)(F)[C@@H]3CN(C(=O)[C@@H]4C[C@@H]4C(=O)O)C[C@@H]32)NC(c2nccs2)=N[C@H]1c1cccc(F)c1C (single isomer, unassigned) [Compound 57B]	92.2	51200	–
CCOC(=O)C1=C(CN2CC(F)(F)[C@@H]3CN(C(=O)OC(C)(C)C(=O)O)C[C@@H]32)NC(c2nccs2)=N[C@H]1c1cccc(F)c1C (single isomer, unassigned) [Compound 60]	49.6	29400	–
CCOC(=O)C1=C(CN2CC(F)(F)[C@H]3[C@@H]2CCN3C(C)=O)NC(c2nccs2)=N[C@H]1c1cccc(F)c1C (single isomer, unassigned) [Compound 61]	37.3	21500	–
CCOC(=O)C1=C(CN2CC(F)(F)[C@H]3[C@@H]2CCN3S(C)(=O)=O)NC(c2nccs2)=N[C@H]1c1cccc(F)c1C (single isomer, unassigned) [Compound 62]	12.7	17300	–
CCOC(=O)C1=C(CN2CC(F)(F)[C@H]3[C@@H]2CCN3C(=O)NC(N)=O)NC(c2nccs2)=N[C@H]1c1cccc(F)c1C (single isomer, unassigned) [Compound 63]	11.8	25200	–
CCOC(=O)C1=C(CN2CC(F)(F)[C@@H]3[C@H]2CN(C(=O)[C@H]2CC2(F)F)N3CCC(C)(C)C(=O)O)NC(c2nccs2)=N[C@H]1c1cccc(F)c1C (single isomer, unassigned) [Compound 72A]	55	14500	–
CCOC(=O)C1=C(CN2CC(F)(F)[C@@H]3[C@H]2CN(C(=O)C2CC2)N3CCC(C)(C)C(=O)O)NC(c2nccs2)=N[C@H]1c1cccc(F)c1C (single isomer, unassigned) [Compound 73]	17	26000	–
CCOC(=O)C1=C(CN2CC(F)(F)[C@@H]3[C@H]2CN(C(=O)C(C)C)N3CCC(C)(C)C(=O)O)NC(c2nccs2)=N[C@H]1c1cccc(F)c1C (single isomer, unassigned) [Compound 74]	38	16600	–
CCOC(=O)C1=C(CN2CC(F)(F)[C@@H]3[C@H]2CN(C(=O)C(F)F)N3CCC(C)(C)C(=O)O)NC(c2nccs2)=N[C@H]1c1cccc(F)c1C (single isomer, unassigned) [Compound 75]	–	22600	40
CCOC(=O)C1=C(CN2CC(F)(F)[C@@H]3[C@H]2CN(C(N)=O)N3CCC(C)(C)C(=O)O)NC(c2nccs2)=N[C@H]1c1cccc(F)c1C (single isomer, unassigned) [Compound 76A]	11	28200	–
CCOC(=O)C1=C(CN2CC(F)(F)[C@H]3[C@@H]2CN(C(C)=O)N3CCC(C)(C)C(=O)O)NC(c2nccs2)=N[C@H]1c1ccc(F)c(F)c1Cl (single isomer, unassigned) [Compound 77B, 4-((cis)-2-acetyl-4-((6-(2-chloro-3,4-difluorophenyl)-5-(ethoxycarbonyl)-2-(thiazol-2-yl)-3,6-dihydropyrimidin-4-yl)methyl)-6,6-difluorohexahydropyrrolo[3,2-c]pyrazol-1(2H)-yl)-2,2-dimethylbutanoic acid]	15	17500	–
COC(=O)C1=C(CN2CC(F)(F)[C@@H]3[C@H]2CN(C(C)=O)N3CCC(C)(C)C(=O)O)NC(c2nccs2)=N[C@H]1c1ccc(F)c(F)c1Cl (single isomer, unassigned) [Compound 79A, 4-((cis)-2-acetyl-4-((6-(2-chloro-3,4-difluorophenyl)-5-(methoxycarbonyl)-2-(thiazol-2-yl)-3,6-dihydropyrimidin-4-yl)methyl)-6,6-difluorohexahydropyrrolo[3,2-c]pyrazol-1(2H)-yl)-2,2-dimethylbutanoic acid]	40	> 50000	–
COC(=O)C1=C(CN2CC(F)(F)[C@H]3[C@@H]2CN(C(C)=O)N3CCC(C)(C)C(=O)O)NC(c2nccs2)=N[C@H]1c1ccc(F)c(F)c1Cl (single isomer, unassigned) [Compound 79B, 4-((cis)-2-acetyl-4-((6-(2-chloro-3,4-difluorophenyl)-5-(methoxycarbonyl)-2-(thiazol-2-yl)-3,6-dihydropyrimidin-4-yl)methyl)-6,6-difluorohexahydropyrrolo[3,2-c]pyrazol-1(2H)-yl)-2,2-dimethylbutanoic acid]	27	54900	–
CCOC(=O)C1=C(CN2CC(F)(F)[C@H]3[C@@H]2CN(C(C)=O)N3CCC(C)(C)C(=O)O)NC(c2nccs2)=N[C@@H]1c1ccc(F)c(F)c1C (single isomer, unassigned) [Compound 80B, 4-((cis)-2-acetyl-4-((6-(3,4-difluoro-2-methylphenyl)-5-(ethoxycarbonyl)-2-(thiazol-2-yl)-3,6-dihydropyrimidin-4-yl)methyl)-6,6-difluorohexahydropyrrolo[3,2-c]pyrazol-1(2H)-yl)-2,2-dimethylbutanoic acid]	8	24100	–
CCOC(=O)C1=C(CN2CC(F)(F)[C@H]3[C@@H]2CN(C(C)=O)N3CCC(C)(C)C(=O)O)NC(c2nccs2)=N[C@H]1c1cccc(F)c1Cl (single isomer, unassigned) [Compound 81B, 4-((cis)-2-acetyl-4-((6-(2-chloro-3-fluorophenyl)-5-(ethoxycarbonyl)-2-(thiazol-2-yl)-3,6-dihydropyrimidin-4-yl)methyl)-6,6-difluorohexahydropyrrolo[3,2-c]pyrazol-1(2H)-yl)-2,2-dimethylbutanoic acid]	13	35900	–
COC(=O)C1=C(CN2CC(F)(F)[C@H]3[C@@H]2CN(C(C)=O)N3CCC(C)(C)C(=O)O)NC(c2nccs2)=N[C@H]1c1ccc(F)c(F)c1C (single isomer, unassigned) [Compound 82B, 4-((cis)-2-acetyl-4-((6-(3,4-difluoro-2-methylphenyl)-5-(methoxycarbonyl)-2-(thiazol-2-yl)-3,6-dihydropyrimidin-4-yl)methyl)-6,6-difluorohexahydropyrrolo[3,2-c]pyrazol-1(2H)-yl)-2,2-dimethylbutanoic acid]	37	46900	–
CCOC(=O)C1=C(CN2CC(F)(F)[C@@H]3[C@H]2CN(C(C)=O)N3CCC(C)(C)C(=O)O)NC(c2nccs2)=N[C@H]1c1ccc(F)c(F)c1F (single isomer, unassigned) [Compound 83A, 4-((cis)-2-acetyl-4-((5-(ethoxycarbonyl)-2-(thiazol-2-yl)-6-(2,3,4-trifluorophenyl)-3,6-dihydropyrimidin-4-yl)methyl)-6,6-difluorohexahydropyrrolo[3,2-c]pyrazol-1(2H)-yl)-2,2-dimethylbutanoic acid]	46	73500	–
CCOC(=O)C1=C(CN2CC(F)(F)[C@H]3[C@@H]2CN(C(C)=O)N3CCC(C)(C)C(=O)O)NC(c2nccs2)=N[C@H]1c1ccc(F)c(F)c1F (single isomer, unassigned) [Compound 83B, 4-((cis)-2-acetyl-4-((5-(ethoxycarbonyl)-2-(thiazol-2-yl)-6-(2,3,4-trifluorophenyl)-3,6-dihydropyrimidin-4-yl)methyl)-6,6-difluorohexahydropyrrolo[3,2-c]pyrazol-1(2H)-yl)-2,2-dimethylbutanoic acid]	35	39000	–
COC(=O)C1=C(CN2CC(F)(F)[C@@H]3[C@H]2CN(C(C)=O)N3CCC(C)(C)C(=O)O)NC(c2nccs2)=N[C@H]1c1cccc(F)c1Cl (single isomer, unassigned) [Compound 84A]	52	> 100000	–
CCOC(=O)C1=C(CN2CC(F)(F)[C@@H]3[C@H]2CN(C(=O)C2(F)CC2)N3CCC(C)(C)C(=O)O)NC(c2nccs2)=N[C@H]1c1cccc(F)c1C (single isomer, unassigned) [Compound 85]	69	22600	–
CCOC(=O)C1=C(CN2CC(F)(F)[C@@H]3[C@H]2CN(C=O)N3CCC(C)(C)C(=O)O)NC(c2nccs2)=N[C@H]1c1cccc(F)c1C (single isomer, unassigned) [Compound 86]	130	> 50000	–
CCOC(=O)C1=C(CN2CC(F)(F)[C@H]3[C@@H]2C(=O)N(CC(C)(C)C(=O)O)N3C)NC(c2nccs2)=N[C@H]1c1cccc(F)c1C (single isomer, unassigned) [Compound 88]	1.5	60000	–
CCOC(=O)C1=C(CN2CC(F)(F)[C@@H]3[C@H]2CN(C(C)C)N3CCC(C)(C)C(=O)O)NC(c2nccs2)=N[C@H]1c1cccc(F)c1C (single isomer, unassigned) [Compound 89]	60	> 3120	–
CCOC(=O)C1=C(CN2CC(F)(F)[C@@H]3[C@H]2CN(CC)N3CCC(C)(C)C(=O)O)NC(c2nccs2)=N[C@H]1c1cccc(F)c1C (single isomer, unassigned) [Compound 90]	20.5	19200	–
